Test results from PubChem BioAssay (NCI).
Values joined by “and” are separate entries in the source; they are usually repeats but may differ in a detail not shown here. Equal entries are not always repeated.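 Dose response: 5 concentrations. Exposure: 48 h. Format: 96-well plates. Endpoint: linear interpolation; highest concentration if not reached. At the GI50, growth is halved. TGI marks complete inhibition of growth.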

Assays:
Assay in all cases: inhibition of tumour cell growth, NCI panel, 48 h
SR leukemia = system: SR leukemia
IGROV1 ovarian = system: IGROV1 ovarian
UACC-62 melanoma = system: UACC-62 melanoma
SK-MEL-2 melanoma = system: SK-MEL-2 melanoma
PC-3 prostate = system: PC-3 prostate
HS 578T breast = system: HS 578T breast
NCI-H522 lung = system: NCI-H522 lung
ACHN renal = system: ACHN renal
NCI-H226 lung = system: NCI-H226 lung
SK-MEL-5 melanoma = system: SK-MEL-5 melanoma

| SMILES | GI50 (SR leukemia) | TGI (SR leukemia) | GI50 (IGROV1 ovarian) | TGI (IGROV1 ovarian) | GI50 (UACC-62 melanoma) | TGI (UACC-62 melanoma) | GI50 (SK-MEL-2 melanoma) | TGI (SK-MEL-2 melanoma) | GI50 (PC-3 prostate) | TGI (PC-3 prostate) | GI50 (HS 578T breast) | TGI (HS 578T breast) | GI50 (NCI-H522 lung) | TGI (NCI-H522 lung) | GI50 (ACHN renal) | TGI (ACHN renal) | GI50 (NCI-H226 lung) | TGI (NCI-H226 lung) | GI50 (SK-MEL-5 melanoma) | TGI (SK-MEL-5 melanoma) |
| --- | --- | --- | --- | --- | --- | --- | --- | --- | --- | --- | --- | --- | --- | --- | --- | --- | --- | --- | --- | --- |
| O=C1/C(=C/C(Cl)=C/c2ccccc2)SC(=S)N1CCc1ccc(O)cc1 | 0.86 µM | > 100 µM | 2.02 µM | 4.93 µM | 1.33 µM | 3.04 µM | 2.56 µM | 7.42 µM | 2.1 µM | 7.42 µM | 3.24 µM | > 100 µM | 1.42 µM | 4.78 µM | 1.67 µM | 3.6 µM | 2.17 µM | 7.16 µM | 1.77 µM | 3.31 µM |
| O=C1/C(=C/c2ccc(Cl)cc2)CN(C(=O)C(Cl)Cl)C/C1=C\c1ccc(Cl)cc1 | 0.0395 µM | > 40.1 µM | 0.178 µM | 0.422 µM | 0.19 µM | 0.426 µM | 1.18 µM | 3.07 µM | 0.199 µM | 0.686 µM | 0.312 µM | 2.33 µM | 0.31 µM | 1.4 µM | 0.214 µM | 0.475 µM | 0.211 µM | 0.454 µM | 0.231 µM | 0.58 µM |
| COC(=O)C#Cc1ccc([N+](=O)[O-])cc1 | – | 1.07 µM | – | 3.92 µM | – | 6.86 µM | – | 7.98 µM | – | 13.1 µM | – | 47.5 µM | – | 3.47 µM | – | 2.9 µM | – | 5.72 µM | – | 6.18 µM |
| Clc1ccc(CO/N=C(\Cn2ccnc2)c2ccc(Cl)cc2Cl)c(Cl)c1 | 1.65 µM | 4.29 µM | 1.92 µM | 3.92 µM | 1.24 µM | 2.67 µM | 2.06 µM | 3.92 µM | 1.27 µM | 2.72 µM | 2.73 µM | > 100 µM | 1.52 µM | 3.28 µM | 1.76 µM | 3.17 µM | 1.42 µM | 3.01 µM | 1.63 µM | 3.03 µM |
| Cn1cnc2c(NCc3ccccc3)nc(NCCO)nc21 | 69.1 µM | > 87 µM and 237 µM | 67.9 µM | 334 µM | 67.5 µM | > 89.9 µM and 302 µM | 44.4 µM | 178 µM | 41.4 µM | 283 µM | 162 µM | 465 µM | 90.6 µM | 322 µM | 92.7 µM | > 468 µM | 17.5 µM | > 93.2 µM and 183 µM | 96.4 µM | 220 µM |
| Cc1ccc(NC(=O)c2ccnc(N3CCCC3)c2)cc1-c1ccc(C(=O)NCC2CC2)cc1 | 13 µM | > 25 µM | > 25 µM | > 25 µM | > 25 µM | > 25 µM | > 25 µM | > 25 µM | > 25 µM | > 25 µM | > 25 µM | > 25 µM | > 25 µM | > 25 µM | > 25 µM | > 25 µM | > 25 µM | > 25 µM | > 25 µM | > 25 µM |
